Source: ChEMBL document CHEMBL1201862, “PubChem BioAssay data set” (2004)
Active and inactive are the calls of the source.

Legend:
[1] = loss of viability in HepG2 cells – cell-based, CellTiter-Glo, cherry-picked, cytotoxicity control for Shn3 inhibitor project, dose response (AID 624134); type: functional
[2] = non-specific 3'UTR reporter inhibition in Clone20-Shn3RL – cell-based, Renilla luciferase, cherry-picked, counter-screen for Shn3 inhibitor project, dose response (AID 624133); type: functional
[3] = alpha-synuclein stem-loop luciferase translation blockers – H4 neuroglioma cells, luminescence, confirmation (AID 1988); type: functional, cell-based
[4] = Fluorescence-based cell-based high throughput dose response assay for inhibitors of the interaction of nucleotide-binding oligomerization domain containing 2 (NOD2) and the receptor-interacting serine-threonine kinase 2 (RIPK2).; type: functional; conditions: Homo sapiens
[5] = luciferase reporter signal suppression in cells – H4 neuroglioma cells, luminescence, dose response (AID 1990); type: functional, cell-based
[6] = target: Beta Lactamase (Pseudomonas aeruginosa, UniProt Q932Y6); assay: BLA reporter interference, concentration series – BLA reporter cells, FRET fluorescence, artefact control for NOD2-RIPK2 interaction inhibitor project, dose response (AID 651552); type: functional, cell-based
[7] = reduction of Shn3 3'UTR-driven luciferase in osteoblasts – cell-based, Clone20 osteoblasts, firefly luciferase, cherry-picked, dose response (AID 624132); type: functional;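 also: firefly luciferase luminescence from reporter carrying the Shn3 3'UTR in osteoblasts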
[8] = Luminescence Cell-Based Dose Response HTS to Identify Inhibitors of 5'UTR Stem-Loop Driven Prion Protein mRNA Translation in H4 Neuroglioblastoma Cells. [Related pubchem assays: 1827 (Project Summary), 1813 (Primary HTS)]; type: functional
[9] = general cell-killing toxicity readout – plate reader, dry powder samples, cytotoxicity control for PAX8 inhibitor project, dose response (AID 743021); type: functional, cell-based
[10] = target: Paired box protein Pax-8 (Homo sapiens, UniProt Q06710); assay: PAX8 transcriptional activity inhibition in RMG-I – RMG-I cells, luciferase, cherry-pick, dose response (AID 687027); type: functional, cell-based;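 also: luciferase reporter driven by Pax8 target thyroperoxidase promoter measured by SteadyGlo luminescence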
[11] = cAMP pathway inhibition in counterscreen cell line – TR-FRET cAMP detection, counter-screen for MC4R biased antagonist project, dose response (AID 602305); type: functional, cell-based;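 also: U2OS cells stimulated with forskolin near its EC80 as the cAMP inducer; potency is for inhibition of forskolin-stimulated cAMP signaling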
[12] = target: Melanocortin receptor 4 (Homo sapiens, UniProt P32245); assay: inhibitors of MC4R cAMP signaling – cell-based, TR-FRET, biased antagonists, dose response (AID 602298); type: functional;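 also: antagonist potency against agonist-stimulated cAMP production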
[13] = cells; type: functional, cell-based
[14] = target: Albumin (Bos taurus, UniProt P02769); assay: Counterscreen for inhibitors of T-cell receptor (TCR)-CD3 interaction: Fluorescence-based biochemical high throughput dose response assay to identify inhibitors of T-cell receptor (TCR)-CD3 interaction using a TAMRA-labeled BSA probe.; type: functional
[15] = system: INS1; assay: INS-1E survival protection against cytokine death – cell-based, luminescence, retest, dose response (AID 449756); type: functional; conditions: Rattus norvegicus;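 also: cell death triggered by IL-1 beta plus TNF-alpha plus IFN-gamma mixture; protective hits raise ATP signal compared with cytokine alone wells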
[16] = system: Streptococcus sp. 'group A'; assay: Streptococcus pyogenes SK(-)GAS viability under kanamycin – luminescence, BacTiterGlo, confirmation, counter-screen for streptokinase expression inhibitor project, dose response (AID 1900); type: functional, organism-based
[17] = system: Streptococcus; assay: GAS UMAA2166 growth inhibition – luminescence, BacTiterGlo, counter-screen for streptokinase expression inhibitor project, dose response (AID 1915); type: functional, organism-based;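 also: potency for reduction of bacterial viability or growth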
[18] = HGIII-sPLA2 enzyme inhibition potency – biochemical, QFRET, IC50, dose response (AID 743457);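 also: green fluorescence rise as the enzyme cleaves BODIPY PC-A2 in liposomes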
[19] = cells; type: functional, cell-based; remark: listed apart in the source
[20] = fluconazole-exposed Candida albicans growth modulators – fluorescence, retest, confirmation (AID 2467); type: functional, cell-based
[21] = NIH-3T3 fibroblast cytotoxicity, dose response, cytotoxicity control, cell-based, fluorescence, Alamar Blue, secondary assay (AID 2327); type: functional;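 also: NIH-3T3 mouse fibroblasts cultured with fluconazole at 8 µg/mL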
[22] = target: T1, Ubiquitin-conjugating enzyme E2 N (Homo sapiens, UniProt P61088); type: functional;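 also: Dose-response confirmation in a TR-FRET assay detecting UBC13-driven polyubiquitin chain formation, inhibition measured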
T1 sequence (P61088 whole entry): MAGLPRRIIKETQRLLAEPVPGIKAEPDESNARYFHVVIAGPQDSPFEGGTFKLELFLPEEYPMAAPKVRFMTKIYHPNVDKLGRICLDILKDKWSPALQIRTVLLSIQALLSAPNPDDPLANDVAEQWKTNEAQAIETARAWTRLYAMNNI

[23] = target: T2, COUP transcription factor 2 (Homo sapiens, UniProt P24468); assay: Luminescence-based cell-based high throughput dose response assay to identify inhibitors of COUP-TFII (NR2F2).; type: functional;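 also: HEK293 cells transiently cotransfected with COUP-TFII expression vector and reporter; luciferase reporter luminescence driven by COUP-TFII from the pX2-168 reporter plasmid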
T2 sequence (P24468 whole entry): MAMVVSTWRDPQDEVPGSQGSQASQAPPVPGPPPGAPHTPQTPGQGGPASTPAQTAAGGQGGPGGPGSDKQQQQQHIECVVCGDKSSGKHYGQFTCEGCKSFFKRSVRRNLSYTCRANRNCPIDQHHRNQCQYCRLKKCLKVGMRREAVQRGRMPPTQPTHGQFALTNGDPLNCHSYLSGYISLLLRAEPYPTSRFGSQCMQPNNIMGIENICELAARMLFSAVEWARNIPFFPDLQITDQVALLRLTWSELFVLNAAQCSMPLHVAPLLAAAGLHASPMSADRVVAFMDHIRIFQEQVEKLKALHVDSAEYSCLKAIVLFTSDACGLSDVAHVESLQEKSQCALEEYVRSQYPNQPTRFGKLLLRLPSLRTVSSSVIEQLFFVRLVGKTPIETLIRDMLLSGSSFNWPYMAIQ

[24] = A549 cell cytotoxicity, dose response, cytotoxicity control, plate reader, cherry-pick, antagonist series (AID 743412); type: functional, cell-based
[25] = target: T3, Corticotropin-releasing factor receptor 2/Corticotropin-releasing factor-binding protein (Homo sapiens, UniProt P24387+Q13324); assay: activators of CRF receptor 2 with binding protein – uHTS hits, confirmation (AID 602473); type: functional; conditions: read-out: EC50_Mean
T3 sequence (Q13324 whole entry): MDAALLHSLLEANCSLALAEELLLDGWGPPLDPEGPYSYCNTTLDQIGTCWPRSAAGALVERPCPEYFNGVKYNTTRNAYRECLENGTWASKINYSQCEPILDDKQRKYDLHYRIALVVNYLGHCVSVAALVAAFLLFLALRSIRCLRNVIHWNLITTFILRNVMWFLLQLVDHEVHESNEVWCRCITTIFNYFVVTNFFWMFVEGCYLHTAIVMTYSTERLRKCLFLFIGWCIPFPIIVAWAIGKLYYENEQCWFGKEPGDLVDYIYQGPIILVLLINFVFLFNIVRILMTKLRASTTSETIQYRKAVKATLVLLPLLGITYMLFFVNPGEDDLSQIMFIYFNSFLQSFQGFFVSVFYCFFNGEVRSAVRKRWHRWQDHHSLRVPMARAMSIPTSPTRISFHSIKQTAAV
T3 sequence (P24387 whole entry): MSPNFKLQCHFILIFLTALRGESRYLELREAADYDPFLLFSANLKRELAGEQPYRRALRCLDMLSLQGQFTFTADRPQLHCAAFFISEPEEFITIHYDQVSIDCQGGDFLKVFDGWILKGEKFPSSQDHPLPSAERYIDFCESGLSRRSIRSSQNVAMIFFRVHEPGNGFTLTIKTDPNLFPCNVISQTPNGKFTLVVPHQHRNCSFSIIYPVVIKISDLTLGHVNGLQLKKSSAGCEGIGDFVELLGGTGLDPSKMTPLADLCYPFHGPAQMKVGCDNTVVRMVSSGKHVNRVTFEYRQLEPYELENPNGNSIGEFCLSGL

[26] = target: T3, Corticotropin-releasing factor receptor 2/Corticotropin-releasing factor-binding protein; assay: Dose Response confirmation of uHTS hits for small molecule antagonists of the CRF-binding protein and CRF-R2 receptor complex.; type: functional; conditions: read-out: IC50_Mean

Sequence of Paired box protein Pax-8 (Q06710 whole entry): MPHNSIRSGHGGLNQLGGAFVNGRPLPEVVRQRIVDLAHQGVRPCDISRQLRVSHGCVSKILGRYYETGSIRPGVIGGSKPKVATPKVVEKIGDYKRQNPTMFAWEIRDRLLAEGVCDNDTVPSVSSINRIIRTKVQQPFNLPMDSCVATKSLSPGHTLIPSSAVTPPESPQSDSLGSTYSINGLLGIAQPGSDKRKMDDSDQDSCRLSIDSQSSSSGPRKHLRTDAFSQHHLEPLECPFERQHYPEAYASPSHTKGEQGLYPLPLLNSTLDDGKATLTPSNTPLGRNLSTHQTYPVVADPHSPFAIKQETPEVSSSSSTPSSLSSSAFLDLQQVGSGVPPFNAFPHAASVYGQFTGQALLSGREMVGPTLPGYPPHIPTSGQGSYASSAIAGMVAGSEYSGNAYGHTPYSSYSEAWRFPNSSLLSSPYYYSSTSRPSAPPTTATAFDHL
Sequence of Beta Lactamase (Q932Y6 whole entry): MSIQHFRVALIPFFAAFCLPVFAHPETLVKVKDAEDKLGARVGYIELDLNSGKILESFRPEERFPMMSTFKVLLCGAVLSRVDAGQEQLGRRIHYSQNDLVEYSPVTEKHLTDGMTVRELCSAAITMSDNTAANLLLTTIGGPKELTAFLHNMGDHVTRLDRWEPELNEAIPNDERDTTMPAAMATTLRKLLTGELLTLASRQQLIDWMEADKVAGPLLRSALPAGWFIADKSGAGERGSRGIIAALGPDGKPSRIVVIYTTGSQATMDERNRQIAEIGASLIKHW
Sequence of Melanocortin receptor 4 (P32245 whole entry): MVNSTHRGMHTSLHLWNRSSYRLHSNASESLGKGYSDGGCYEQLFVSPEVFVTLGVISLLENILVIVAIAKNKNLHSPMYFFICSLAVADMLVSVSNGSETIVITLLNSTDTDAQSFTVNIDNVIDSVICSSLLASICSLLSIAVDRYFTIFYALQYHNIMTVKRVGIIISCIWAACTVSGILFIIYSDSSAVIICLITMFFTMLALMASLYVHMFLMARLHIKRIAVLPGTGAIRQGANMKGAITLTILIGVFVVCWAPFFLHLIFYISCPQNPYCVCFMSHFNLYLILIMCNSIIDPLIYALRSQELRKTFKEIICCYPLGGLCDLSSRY
Sequence of Albumin (P02769 whole entry): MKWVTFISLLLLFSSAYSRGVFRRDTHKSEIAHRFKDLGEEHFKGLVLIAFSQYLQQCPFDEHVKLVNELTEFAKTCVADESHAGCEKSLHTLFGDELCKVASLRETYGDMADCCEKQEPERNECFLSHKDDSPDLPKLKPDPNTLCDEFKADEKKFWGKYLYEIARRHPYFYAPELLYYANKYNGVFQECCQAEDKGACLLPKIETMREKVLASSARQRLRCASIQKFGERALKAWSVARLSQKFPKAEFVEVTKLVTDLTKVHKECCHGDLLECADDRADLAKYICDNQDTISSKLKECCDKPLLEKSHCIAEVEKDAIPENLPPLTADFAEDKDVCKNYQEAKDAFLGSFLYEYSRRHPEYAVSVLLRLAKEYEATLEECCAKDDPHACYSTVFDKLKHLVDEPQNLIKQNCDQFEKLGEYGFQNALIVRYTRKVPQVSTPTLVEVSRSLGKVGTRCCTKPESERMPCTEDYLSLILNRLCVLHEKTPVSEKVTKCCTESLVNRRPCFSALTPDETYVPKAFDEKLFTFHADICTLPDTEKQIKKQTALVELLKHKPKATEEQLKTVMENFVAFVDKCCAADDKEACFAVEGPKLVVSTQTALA

Cc1cccc(CS(=O)(=O)c2ncc(Cl)c(C(=O)NCc3ccccc3)n2)c1
AC50 [1]: 18.8 µM (active) | AC50 [2]: 14 µM (active) | EC50 [3]: 12 µM (active) | IC50 [4]: 2.77 µM (active) | EC50 [5]: > 120 µM (not active) | IC50 [6]: 12.3 µM (inactive) | AC50 [7]: 2.94 µM (active) | EC50 [8]: 26.1 µM (active)

CC(OC(=O)c1ccc(S(C)(=O)=O)c([N+](=O)[O-])c1)C(=O)NC1C2CC3CC(C2)CC1C3 (stereo unspecified)
AC50 [9]: 22.6 µM (active) | AC50 [10]: 5.88 µM (active) | AC50 [1]: 8.28 µM (active) | IC50 [11]: > 64.6 µM (inactive) | AC50 [2]: 7.51 µM (active) | IC50 [12]: > 64.6 µM (inactive) | IC50 [4]: 0.8 µM (active) | IC50 [6]: 49.8 µM (inactive) | AC50 [7]: 1.4 µM (active)

Cc1cc(Br)cc(/C=N/NC(=O)c2ccc3c(c2)OCO3)c1O
EC50 [13]: 96.8 µM (active) | IC50 [14]: > 94.1 µM (inactive) | AC50 [15]: 1.32 µM (active) | EC50 [16]: 1.22 µM (active) | EC50 [17]: 3.25 µM (active) | IC50 [18]: > 122 µM (inactive) | EC50 [19]: 75.7 µM (active)

S=C(Nc1ccc(Cl)cc1)c1nc2ccccc2[nH]1
EC50 [20]: > 38 µM (not active) | EC50 [21]: 19 µM (active) | EC50 [16]: 1.26 µM (active) | EC50 [17]: 3.17 µM (active) | IC50 [18]: > 122 µM (inactive)

COc1cccc(/C=C2/Sc3ccc(C(=O)NCCN4CCCCCC4)cc3NC2=O)c1
AC50 [9]: 36 µM (active) | AC50 [10]: 10.1 µM (active) | IC50 [22]: > 20 µM (inactive)

COc1ccc(NC(=O)COc2ccc(N(C)S(=O)(=O)c3ccc(Cl)cc3)cc2)cc1OC
AC50 [1]: 32.1 µM (active) | AC50 [2]: 1.81 µM (active) | IC50 [23]: 6.67 µM (active) | AC50 [7]: 1.35 µM (active)

Cc1nc(-c2ccc(NC(=O)c3ccco3)cc2)cs1
AC50 [9]: 17.1 µM (active) | AC50 [10]: 8.26 µM (active)

CC(=O)N1CCc2cc(S(=O)(=O)C(C)CC(=O)NCc3ccco3)ccc21 (stereo unspecified)
AC50 [24]: > 52 µM (inactive)

CCCC(=O)Nc1nnc(Sc2ccc(N(C)C)cc2)s1
EC50 [25]: > 53 µM (inactive) | IC50 [26]: > 47.1 µM (inactive)
